For the assay, the system named is 598228-144-R-J1-PDC complex spheroids, viability. Kind of assay: Anticancer human tumor 598228-144-R-J1-PDC patient-derived serous endometrial adenocarcinoma cell line growth inhibition [CLK]. The following applies: for viability, T/C: stronger effect = lower value. In short, it runs like this: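 Multi-cell-type spheroids combined patient-derived tumor cells with HUVEC endothelial cells and human mesenchymal stem cells. Paired agents were dosed in half-log steps down from about clinical Cmax, or from 10 microM where Cmax was unknown.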

SMILES strings stand for the structures. Several values for one entry are separate records, joined by “and”; a condition that tells them apart may be missing. Identical values can stand only once.
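Also: spheroids exposed to compounds for seven days before readout.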
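For viability, T/C in this document: 100% = DMSO vehicle control wells.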

As for `NC(=O)C(=Cn1cnc(-c2cc(C(F)(F)F)cc(C(F)(F)F)c2)n1)c1cncnc1`, the viability, T/C (compound 0.00949 µM) was 89% and 103%; the viability, T/C (compound 0.03 µM) was 80.9% and 101%; the viability, T/C (compound 0.0949 µM) was 52.1% and 86.2%; the viability, T/C (compound 0.3 µM) was 32% and 38.9%; the viability, T/C (compound 0.949 µM) was 15% and 30.6%; the viability, T/C (compound 3 µM) is 18.1% and 21.5%. Under “curve of compound”, the IC50 is 114 nM and 232 nM.

The values above are taken from PubChem BioAssay AID2060614 (Molecular Pharmacology Branch, DTP, NCI, 2025).
